Data as given in patent US7652047B2, “Phenylamino isothiazole carboxamidines as MEK inhibitors” (Ardea Biosciences, Inc., priority 2005, dated 2010).

Each compound was assayed against T1, MEK1^CA (human GST-MEK1, constitutively active, Ser218Asp and Ser222Asp) (Homo sapiens, UniProt Q02750, S218D/S222D) (assay: MEK1 enzymatic activity assay (MEK1^CA / ERK2 / MBP, [γ-33P]ATP incorporation)). Conditions: Table 1, compounds of formula I; read-out: Avg IC50.
T1 construct: GST; made in house; host or cells: Escherichia coli
T1 sequence (Q02750 whole entry S218D/S222D): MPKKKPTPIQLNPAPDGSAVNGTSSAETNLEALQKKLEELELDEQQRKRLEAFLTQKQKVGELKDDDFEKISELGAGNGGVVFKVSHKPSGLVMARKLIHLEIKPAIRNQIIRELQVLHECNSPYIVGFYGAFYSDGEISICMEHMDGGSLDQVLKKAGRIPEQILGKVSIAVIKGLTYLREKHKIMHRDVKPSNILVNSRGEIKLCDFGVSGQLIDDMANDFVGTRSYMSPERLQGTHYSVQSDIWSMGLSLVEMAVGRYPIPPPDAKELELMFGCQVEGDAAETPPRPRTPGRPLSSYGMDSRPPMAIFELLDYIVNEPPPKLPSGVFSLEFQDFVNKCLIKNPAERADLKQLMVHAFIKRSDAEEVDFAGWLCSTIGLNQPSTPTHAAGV
Assay type: biochemical
Excerpt: Materials and preparation of reagents: Human GST-MEK1 and the constitutively active allele GST-MEK1^CA (harboring the mutations Ser218Asp and Ser222Asp) were subcloned into the […] expression vector pGEM4Z (Promega, Madison, Wis.) from the wild type human MEK1 cDNA. GST-MEK1^CA was expressed in Escherichia coli and partially purified using Glutathione Sepharose 4B affinity resin (Amersham Pharmacia Biotech, Piscataway, N.J.). The ERK2 allele was subcloned from MAPK2/Erk2 cDNA (wild type) in pUSEamp (Upstate Biotechnology, Inc., Waltham, Mass.) into the vector pET21a (Novagen, Madison, Wis.) resulting in an N-terminal histidine-tagged mouse ERK2 allele. […] Myelin basic protein (MBP) was purchased from Gibco BRL (Rockville, Md.). EasyTides adenosine 5′-triphosphate (ATP) ([γ-^33P]) (NEN Perkin Elmer, Wellesley, Mass.) was the source of radiolabel for all kinase reactions. Activated Raf-1 (truncated) and activated MAPKinase 2/ERK2 were purchased from Upstate, Inc. (Lake Placid, N.Y.). 4-20% Criterion Precast gels were purchased from Bio-Rad (Hercules, Calif.).
A typical 25-microliter assay contained 0.002 nanomoles MEK1^CA, 0.02 nanomoles ERK2, 0.25 nanomoles MBP, 0.25 nanomoles unlabeled ATP, and 0.1 μCi [γ^33P] ATP. The screening assay essentially comprised four additions. Five μl of diluted compound were dispensed to 96-well assay plates. Ten μl of 2.5× enzyme cocktail (MEK1^CA and ERK2 only) were then added to each well followed by a pre-incubation for 30 minutes at ambient temperature. […] Finally, 100 μl of 10% trichloroacetic acid (TCA) were added and incubated for 30 minutes at room temperature to halt the reaction and precipitate radiolabeled protein products. Reaction products were harvested on glass fiber 96 well filter plates prewetted with water and 1% pyrophosphate. The filter plate was then washed 5 times with water. Water was displaced by absolute ethanol and the plate was allowed to air dry for 30 minutes at room temperature. A back seal was applied manually and 40 μl of scintillation cocktail were dispensed to each well. A top seal was applied and the plate was counted in the TopCount for two seconds per well.

SMILES | IC50 [nM]
N=C(NCCO)c1c(O)nsc1Nc1ccc(Oc2ccc(Cl)cc2)cc1 [compound 192] | 100 to 500
CC(CO)NC(=N)c1c(O)nsc1Nc1ccc(Oc2cccc(C(F)(F)F)c2)nc1 (centres unmarked) [compound 433] | 1 to 100
N=C(NCc1ccccc1)c1c(O)nsc1Nc1ccc(Oc2ccccc2)cc1 [Cpd 20] | 100 to 500
CN1CCN(C(=N)c2c(O)nsc2Nc2ccc(Oc3cc(F)cc(F)c3)cc2)CC1 [compound 419] | > 500
CC(C)NC(=N)c1c(O)nsc1Nc1ccc(Oc2ccccc2)nc1 [compound 257] | > 500
C=CCNC(=N)c1c(O)nsc1Nc1ccc(Oc2ccccc2)cc1 [compound 200] | 1 to 100
Cc1cc(Nc2snc(O)c2C(=N)NC(C)C)ccc1Oc1ccc(F)cc1 [compound 397] | > 500
CC(CO)NC(=N)c1c(O)nsc1Nc1ccc(Oc2cc(F)ccc2F)cc1 (centres unmarked) [compound 350] | 1 to 100
CC(C)CNC(=N)c1c(O)nsc1Nc1ccc(Oc2ccccc2)cc1 [compound 202] | 1 to 100
CNC(=N)c1c(O)nsc1Nc1ccc(C)cc1 [Cpd 1] | 100 to 500
CC(C)NC(=N)c1c(O)nsc1Nc1ccc(Oc2cc(Cl)ccc2Cl)nc1 [compound 431] | 1 to 100
COc1ccc(CNC(=N)c2c(O)nsc2NCc2ccc(OC)cc2)cc1 [compound 115] | > 500
CC(CO)NC(=N)c1c(O)nsc1Nc1ccc(OC2CCCCC2)cc1 (centres unmarked) [compound 220] | > 500
CCCNC(=N)c1c(O)nsc1Nc1ccc(Oc2ccccc2)cc1 [compound 201] | 100 to 500
Cc1ccc(Oc2ccc(Nc3snc(O)c3C(=N)NCC3CCCCC3)cc2)cc1 [compound 109] | 1 to 100
CCOC(=O)N1CCC(NC(=N)c2c(O)nsc2Nc2ccc(Oc3ccccc3)cc2)CC1 [compound 30] | 100 to 500
CNC(=N)c1c(O)nsc1Nc1ccc(Oc2ccc(Cl)cc2Cl)cc1 [compound 231] | 100 to 500
CC(C)(CO)CNC(=N)c1c(O)nsc1Nc1ccc(Oc2ccccc2)cc1 [compound 143] | 1 to 100
CC(C)N(O)C(=N)c1c(O)nsc1Nc1ccc(Oc2cc(Cl)ccc2Cl)cc1 [compound 455] | 1 to 100
CC(C)C(CO)NC(=N)c1c(O)nsc1Nc1ccc(Oc2ccccc2)cc1 (centres unmarked) [compound 179] | 100 to 500
CC(C)OCCCNC(=N)c1c(O)nsc1Nc1ccc(Oc2ccccc2)cc1 [compound 51] | 1 to 100
CC(C)NC(=N)c1c(O)nsc1Nc1ccc(Oc2cccc(F)c2)cc1 [compound 272] | 1 to 100
CCCCNC(=N)c1c(O)nsc1Nc1ccc(Oc2ccccc2)cc1 [Cpd 27] | 100 to 500
CC(C)NC(=N)c1c(O)nsc1Nc1ccc(Sc2ccccc2)cc1 [compound 255] | 1 to 100

SMILES | IC50 [nM]
CCOC(=O)c1ccccc1Oc1ccc(Nc2snc(O)c2C(=N)NC(C)CO)cc1 (centres unmarked) [compound 494] | 1 to 100
CC(CO)NC(=N)c1c(O)nsc1Nc1ccc(Oc2cc(F)ccc2Cl)c(F)c1 (centres unmarked) [compound 322] | 1 to 100
Cc1cc(Nc2snc(O)c2C(=N)NCC2CCCCC2)c2ccccc2n1 [compound 107] | > 500
CC(C)NC(=N)c1c(O)nsc1Nc1ccc(Oc2ccc(Cl)cc2)cc1 [compound 183] | 1 to 100
N=C(NCCCN1CCCC1=O)c1c(O)nsc1Nc1ccc(Oc2ccccc2)cc1 [compound 39] | 1 to 100
Cc1ccc2cc(Nc3snc(O)c3C(=N)NCC3CCCCC3)ccc2n1 [compound 106] | > 500
CC(CO)NC(=N)c1c(O)nsc1Nc1ccc(Oc2ccc(C(F)(F)F)cc2)c(F)c1 (centres unmarked) [compound 378] | 100 to 500
Cc1cc(Nc2snc(O)c2C(=N)NC(C)C)ccc1Oc1cc(F)ccc1Cl [compound 380] | 100 to 500
N=C(NCCN1CCCCC1)c1c(O)nsc1Nc1ccc(Oc2ccccc2)cc1 [compound 53] | 100 to 500
N=C(NCc1cccc2ccccc12)c1c(O)nsc1Nc1ccccc1 [compound 87] | > 500
CC[C@H](CO)NC(=N)c1c(O)nsc1Nc1ccc(Oc2cc(F)cc(F)c2)cc1C [compound 469] | 1 to 100
CC(C)NC(=N)c1c(O)nsc1Nc1ccc([C@H]2CC[C@H](OC(=O)C(C)C)CC2)cc1 [compound 197] | 100 to 500
CC(CO)NC(=N)c1c(O)nsc1Nc1ccc(Oc2cccc(C(C)(C)C)c2)cc1 (centres unmarked) [compound 284] | 100 to 500
CC(CO)NC(=N)c1c(O)nsc1Nc1ccc(Oc2ccccc2F)cc1 (centres unmarked) [compound 372] | 100 to 500
N=C(NCC1CCCCC1)c1c(O)nsc1Nc1ccc(Sc2ccc([N+](=O)[O-])cc2)cc1 [compound 84] | 100 to 500
N=C(NCC1CCCCC1)c1c(O)nsc1Nc1ccc(Oc2cc(F)cc(F)c2)cc1 [compound 423] | 1 to 100
CC(C)NC(=N)c1c(O)nsc1Nc1ccc(Oc2cccc(C(F)(F)F)c2Cl)c(Cl)c1 [compound 364] | 1 to 100
CC(C)CC(C)NC(=N)c1c(O)nsc1Nc1ccc(Oc2ccccc2)cc1 (centres unmarked) [compound 35] | 100 to 500
Cc1cc(Oc2cc(Cl)ccc2Cl)ccc1Nc1snc(O)c1C(=N)NC(C)C [compound 460] | 1 to 100
N=C(NCC1CCCO1)c1c(O)nsc1Nc1ccc(Oc2ccccc2)cc1 (centres unmarked) [Cpd 25] | 1 to 100
N=C(NC1CCC1)c1c(O)nsc1Nc1ccc(Oc2ccccc2)cc1 [Cpd 16] | 1 to 100
CC(CO)NC(=N)c1c(O)nsc1Nc1ccc(Oc2cccc(Br)c2)cc1 (centres unmarked) [compound 251] | 1 to 100
CC(CO)NC(=N)c1c(O)nsc1Nc1ccc(Oc2ccccc2)c(F)c1 (centres unmarked) [compound 306] | 1 to 100
CC(C)NC(=N)c1c(O)nsc1Nc1ccc(Oc2cccc(F)c2F)cc1 [compound 326] | 1 to 100

SMILES | IC50 [nM]
Cc1cccc(Cl)c1Oc1ccc(Nc2snc(O)c2C(=N)NC(C)C)cc1 [compound 344] | > 500
N=C(NCCO)c1c(O)nsc1Nc1ccc(Cc2ccccc2)cc1 [compound 146] | > 500
Cc1ccccc1Oc1ccc(Nc2snc(O)c2C(=N)NC(C)CO)cc1C (centres unmarked) [compound 325] | > 500
N=C(NCCN1CCNCC1)c1c(O)nsc1Nc1ccc(Oc2cc(F)cc(F)c2)cc1 [compound 412] | 1 to 100
N=C(N[C@@H]1CCC[C@H]1O)c1c(O)nsc1Nc1ccc(Oc2ccccc2)cc1 [compound 155] | 100 to 500
Cc1cc(Nc2snc(O)c2C(=N)NC(C)C)ccc1Oc1ccc(C(F)(F)F)cc1 [compound 389] | > 500
N=C(NCc1cccc2ccccc12)c1c(O)nsc1Nc1ccc(Oc2ccccc2)cc1 [compound 45] | 1 to 100
N=C(NC1CCCCCC1)c1c(O)nsc1Nc1ccc(Oc2ccccc2)cc1 [Cpd 23] | 1 to 100
COc1cccc(F)c1Oc1ccc(Nc2snc(O)c2C(=N)NC(C)CO)cc1 (centres unmarked) [compound 281] | 100 to 500
CC(C)NC(=N)c1c(O)nsc1Nc1ccccc1Oc1ccccc1 [compound 456] | 100 to 500
CC(CO)NC(=N)c1c(O)nsc1Nc1ccc(Oc2ccc(Cl)cc2)cc1 (centres unmarked) [compound 191] | 100 to 500
N=C(NCC1CCCCC1)c1c(O)nsc1Nc1ccc(Oc2cncnc2)cc1 [compound 137] | > 500
N=C(NCC1CCCCC1)c1c(O)nsc1Nc1ccc(OC(F)F)cc1 [compound 95] | > 500
CC(CO)NC(=N)c1c(O)nsc1Nc1ccc(Oc2cc(C(F)(F)F)cc(C(F)(F)F)c2)cc1 (centres unmarked) [compound 332] | 100 to 500
CC(C)NC(=N)c1c(O)nsc1Nc1ccc(Oc2cccc(F)c2F)nc1 [compound 429] | 100 to 500
Cc1ccc(Oc2ccc(Nc3snc(O)c3C(=N)NCC3CCCCC3)cc2)cn1 [compound 124] | 100 to 500
CC(C)NC(=N)c1c(O)nsc1Nc1ccc(Oc2ccccc2Cl)c(F)c1 [compound 277] | 1 to 100
CCCCC(CO)NC(=N)c1c(O)nsc1Nc1ccc(Oc2ccccc2)cc1 (centres unmarked) [compound 157] | 100 to 500
CC(C)NC(=N)c1c(O)nsc1Nc1ccc(O)c(Cl)c1 [compound 243] | 100 to 500
CCC[C@H]1CC[C@H](c2ccc(Nc3snc(O)c3C(=N)NC[C@@H](O)CO)cc2)CC1 [compound 193] | > 500
COC(=O)c1ccccc1Nc1snc(O)c1C(N)=NCC1CCCCC1 [compound 99] | > 500
N=C(NCCN1CCOCC1)c1c(Nc2ccc(Oc3ccccc3)cc2)s[nH]c1=O [compound 54] | 100 to 500

Same assay, conditions: Table 2, Ar1-A contains an amido or indolo group; read-out: IC 50

SMILES | IC50 [nM]
N=C(NCCCCO)c1c(O)nsc1Nc1ccc(C(=O)NCCCCO)cc1 [E-15] | > 1000
CC(CO)NC(=N)c1c(O)nsc1Nc1ccc(C(=O)N2CCc3ccccc32)cc1 (centres unmarked) [E-16] | 1 to 200
CNC(=N)c1c(O)nsc1Nc1ccc(C(=O)N2CCc3cc(F)ccc32)cc1 [E-22] | > 1000

Same assay, conditions: Table 4, R' is (CH2)1 or 2-G; read-out: IC50

SMILES | IC50 [nM]
N=C(NCCN1CCOCC1)c1c(O)nsc1Nc1ccc(Oc2cc(F)cc(F)c2)cc1 [drawing 830] | 100 to 500
